Test results: patent publication US10238658B2, “1-pyrazolyl-3-(4-((2-anilinopyrimidin-4-yl) oxy) napththalen-1-yl) ureas as p38 MAP kinase inhibitors” (Respivert Limited, priority 2011, dated 2019)

How the values were obtained:
Assay type in all cases: cell-based
HRV16 = HRV16 induced CPE in MRC5 cells; settings: Human rhinovirus sp., HRV16, MRC5, at 0.04 μg/mL; read-out: HRV CPE (MRC5) % inhibition
Experimental: The supernatants were aspirated, and then fresh media added followed by incubation for 4 days. Where appropriate, cells were pre-incubated with compound or DMSO for 2 hr, and the compounds and DMSO added again after washout of the virus.
The percentage inhibition for each well was calculated. The IC50 value was calculated from the concentration-response curve generated by the serial dilutions of the test compounds.

IL-8 [1] = assay: Rhinovirus-induced IL-8 release in BEAS2B cells; settings: Homo sapiens, BEAS-2B, at 0.04 μg/mL; read-out: HRV IL-8 (BEAS2B) % inhibition
Experimental: Human rhinovirus RV16 was obtained from the American Type Culture Collection (Manassas, Va.). Viral stocks were generated by infecting Hela cells with HRV until 80% of the cells were cytopathic.
BEAS2B cells were infected with HRV at an MOI of 5 and incubated for 2 hr at 33° C. with gentle shaking for to promote absorption. The cells were then washed with PBS, fresh media added and the cells were incubated for a further 72 hr. The supernatant was collected for assay of IL-8 concentrations using a Duoset ELISA development kit (R&D systems, Minneapolis, Minn.). […]

IL-8 [2] = assay: LPS-induced IL-8 release in d-U937 cells; settings: Homo sapiens, dU937, dU937 cells
Experimental: (§1) U937 cells, a human monocytic cell line, were differentiated into macrophage-type cells by incubation with PMA (100 ng/mL) for 48 to 72 hr. Cells were pre-incubated with final concentrations of test compound for 2 hr and were then stimulated with LPS (0.1 μg/mL; from E. Coli: O111:B4, Sigma) for 4 hr. The supernatant was collected for determination of TNFα and IL-8 concentrations by sandwich ELISA (Duo-set, R&D systems). […] The relative 50% effective concentration (REC50) was determined from the resultant concentration-response curve. The inhibition of IL-8 production was calculated at each concentration of test compound by comparison with vehicle control.

TNFα [3] = assay: LPS-induced TNFα release in d-U937 cells; settings: Homo sapiens, dU937, dU937 cells; relative to 10 μg/mL BIRB796; read-out: LPS Induced Release TNFα REC50 (dU937)
Experimental: as §1

TNFα [4] = assay: LPS-induced TNFα release in THP-1 cells; settings: Homo sapiens, THP-1, THP1 cells
Experimental: THP-1 cells, a human monocytic cell line, were stimulated with 3 μg/mL of LPS (from E. Coli; 0111:B4, Sigma) for 4 hr and the supernatant collected for determination of the TNFα concentration by sandwich ELISA (Duo-set, R&D systems). The inhibition of TNFα production was calculated at each concentration by comparison with vehicle control.

PBMC = assay: Cell mitosis assay; settings: Homo sapiens
Experimental: Peripheral blood mononucleocytes (PBMCs) from healthy subjects were separated from whole blood (Quintiles, London, UK) using a density gradient (Histopaque®-1077, Sigma-Aldrich, Poole, UK). The PBMCs (3 million cells per sample) were subsequently treated with 2% PHA (Sigma-Aldrich, Poole, UK) for 48 hr, followed by a 20 hr exposure to varying concentrations of test compounds. At 2 hr before collection, PBMCs were treated with demecolcine (0.1 μg/mL; Invitrogen, Paisley, UK,) to arrest cells in metaphase. To observe mitotic cells, PBMCs were permeabilised and fixed by adding Intraprep (50 μL; Beckman Coulter, France), and stained with anti-phospho-histone 3 ([…]; #9701; Cell Signalling, Danvers, Mass.) and propidium iodide (1 mg/mL; Sigma-Aldrich, Poole, UK,) as previously described (Muehlbauer P. A. and Schuler M. J., Mutation Research, 2003, 537:117-130). Fluorescence was observed using an ATTUNE flow cytometer (Invitrogen, Paisley, UK), gating for lymphocytes.

IC50 (IL-8 [2]) [nM]	EC50 (TNFα [3]) [nM]	IC50 (TNFα [4]) [nM]	SMILES	inhibition at 0.04 µg/mL (HRV16) [%]	inhibition at 0.04 µg/mL (IL-8 [1]) [%]	inhibition at 1 µg/mL (PBMC; read-out: Mitosis Assay % inhibition in PBMC Cells at concn 1 μg/mL) [%]	inhibition at 5 µg/mL (PBMC; read-out: Mitosis Assay % inhibition in PBMC Cells at concn 5 μg/mL) [%]
18	14	0.4	COc1ccc(Nc2nccc(Oc3ccc(NC(=O)Nc4cc(C(C)(C)C)nn4-c4ccc(C)cc4)c4ccccc34)n2)cc1Cl [Example 28, 1-(3-(tert-butyl)-1-(p-tolyl)-1H-pyrazol-5-yl)-3-(4-((2-((3-chloro-4-methoxyphenyl)amino)pyrimidin-4-yl)oxy)naphthalen-1-yl)urea]	54	100	–	–
15	7	225	Cc1ccc(-n2nc(C(C)(C)C)cc2NC(=O)Nc2ccc(Oc3ccnc(Nc4ccccc4Cl)n3)c3ccccc23)cc1 [Example 6, 1-(3-(tert-butyl)-1-(p-tolyl)-1H-pyrazol-5-yl)-3-(4-((2-((2-chlorophenyl)amino)pyrimidin-4-yl)oxy)naphthalen-1-yl)urea]	–	–	–	–
1.6	2	2.7	COc1cccc(Nc2nccc(Oc3ccc(NC(=O)Nc4cc(C(C)(C)C)nn4-c4ccc(C)cc4)c4ccccc34)n2)c1 [Example 14, 1-(3-(tert-butyl)-1-(p-tolyl)-1H-pyrazol-5-yl)-3-(4-((2-((3-methoxyphenyl)amino)pyrimidin-4-yl)oxy)naphthalen-1-yl)urea]	100	100	–	–
> 1680	35	21	Cc1ccc(Nc2nccc(Oc3ccc(NC(=O)Nc4cc(C(C)(C)C)nn4-c4ccc(C)cc4)c4ccccc34)n2)cc1 [Example 11, 1-(3-(tert-butyl)-1-(p-tolyl)-1H-pyrazol-5-yl)-3-(4-((2-(p-tolylamino)pyrimidin-4-yl)oxy)naphthalen-1-yl)urea]	100	100	–	–
3	1	1.6	Cc1ccc(-n2nc(C(C)(C)C)cc2NC(=O)Nc2ccc(Oc3ccnc(Nc4ccc(O)cc4F)n3)c3ccccc23)cc1 [Example 30, 1-(3-(tert-butyl)-1-(p-tolyl)-1H-pyrazol-5-yl)-3-(4-((2-((2-fluoro-4-hydroxyphenyl)amino)pyrimidin-4-yl)oxy)naphthalen-1-yl)urea]	≤ 0	100	–	–
> 1620	> 1620	1600	Cc1ccc(-n2nc(C(C)(C)C)cc2NC(=O)Nc2ccc(Oc3ccnc(Nc4cccc(Cl)c4)n3)c3ccccc23)cc1 [Example 13, 1-(3-(tert-butyl)-1-(p-tolyl)-1H-pyrazol-5-yl)-3-(4-((2-((3-chlorophenyl)amino)pyrimidin-4-yl)oxy)naphthalen-1-yl)urea]	100	100	–	–
32	16	6.1	Cc1ccc(-n2nc(C(C)(C)C)cc2NC(=O)Nc2ccc(Oc3ccnc(Nc4ccc(O)cc4Cl)n3)c3ccccc23)cc1 [Example 31, 1-(3-(tert-butyl)-1-(p-tolyl)-1H-pyrazol-5-yl)-3-(4-((2-((2-chloro-4-hydroxyphenyl)amino)pyrimidin-4-yl)oxy)naphthalen-1-yl)urea]	≤ 0	100	–	–
2.3	2.2	3	Cc1ccc(-n2nc(C(C)(C)C)cc2NC(=O)Nc2ccc(Oc3ccnc(Nc4cccc(F)c4)n3)c3ccccc23)cc1 [Example 15, 1-(3-(tert-butyl)-1-(p-tolyl)-1H-pyrazol-5-yl)-3-(4-((2-((3-fluorophenyl)amino)pyrimidin-4-yl)oxy)naphthalen-1-yl)urea]	100	100	–	–
15	15	45	Cc1ccc(-n2nc(C(C)(C)C)cc2NC(=O)Nc2ccc(Oc3ccnc(Nc4cc(C)ccc4C)n3)c3ccccc23)cc1 [Example 10, 1-(3-(tert-butyl)-1-(p-tolyl)-1H-pyrazol-5-yl)-3-(4-((2-((2,5-dimethylphenyl)amino)pyrimidin-4-yl)oxy)naphthalen-1-yl)urea]	100	100	–	–
1.8	1.7	1.2	CC(C)(C)c1cc(NC(=O)Nc2ccc(Oc3ccnc(Nc4ccccc4)n3)c3ccccc23)n(-c2ccc(O)cc2)n1 [Example 3, 1-(3-(tert-butyl)-1-(4-hydroxyphenyl)-1H-pyrazol-5-yl)-3-(4-((2-(phenylamino)pyrimidin-4-yl)oxy)naphthalen-1-yl)urea]	100	100	–	–
2.4	2	30	Cc1ccc(-n2nc(C(C)(C)C)cc2NC(=O)Nc2ccc(Oc3ccnc(Nc4cccc(C)c4)n3)c3ccccc23)cc1 [Example 12, 1-(3-(tert-butyl)-1-(p-tolyl)-1H-pyrazol-5-yl)-3-(4-((2-(m-tolylamino)pyrimidin-4-yl)oxy)naphthalen-1-yl)urea]	100	100	–	–
23	18	121	Cc1ccc(-n2nc(C(C)(C)C)cc2NC(=O)Nc2ccc(Oc3ccnc(Nc4ccccc4C(C)C)n3)c3ccccc23)cc1 [Example 20, 1-(3-(tert-butyl)-1-(p-tolyl)-1H-pyrazol-5-yl)-3-(4-((2-((2-isopropylphenyl)amino)pyrimidin-4-yl)oxy)naphthalen-1-yl)urea]	≤ 0	100	–	–
1.5	0.84	0.4	COc1cc(Nc2nccc(Oc3ccc(NC(=O)Nc4cc(C(C)(C)C)nn4-c4ccc(C)cc4)c4ccccc34)n2)ccc1O [Example 25, 1-(3-(tert-butyl)-1-(p-tolyl)-1H-pyrazol-5-yl)-3-(4-((2-((4-hydroxy-3-methoxyphenyl)amino)pyrimidin-4-yl)oxy)naphthalen-1-yl)urea]	–	100	29.1	63.5
2.1	2	4.3	COc1ccc(Nc2nccc(Oc3ccc(NC(=O)Nc4cc(C(C)(C)C)nn4-c4ccc(C)cc4)c4ccccc34)n2)cc1 [Example 17, 1-(3-(tert-butyl)-1-(p-tolyl)-1H-pyrazol-5-yl)-3-(4-((2-((4-methoxyphenyl)amino)pyrimidin-4-yl)oxy)naphthalen-1-yl)urea]	≤ 0	100	–	–
2.3	3.1	4.6	Cc1ccc(-n2nc(C(C)(C)C)cc2NC(=O)Nc2ccc(Oc3ccnc(Nc4ccccc4F)n3)c3ccccc23)cc1 [Example 4, 1-(3-(tert-butyl)-1-(p-tolyl)-1H-pyrazol-5-yl)-3-(4-((2-((2-fluorophenyl)amino)pyrimidin-4-yl)oxy)naphthalen-1-yl)urea]	44	100	–	–

SMILES	IC50 (IL-8 [2]) [nM]	EC50 (TNFα [3]) [nM]	IC50 (TNFα [4]) [nM]	inhibition at 0.04 µg/mL (HRV16) [%]	inhibition at 0.04 µg/mL (IL-8 [1]) [%]	inhibition at 1 µg/mL (PBMC; read-out: Mitosis Assay % inhibition in PBMC Cells at concn 1 μg/mL) [%]	inhibition at 5 µg/mL (PBMC; read-out: Mitosis Assay % inhibition in PBMC Cells at concn 5 μg/mL) [%]
COCC(=O)Nc1cc(Oc2ccc(NC(=O)Nc3cc(C(C)(C)C)nn3-c3ccc(C)cc3)c3ccccc23)ccn1 [Reference Compound, N-(4-(4-(3-(3-tert-butyl-1-p-tolyl-1H-pyrazol-5-yl)ureido)naphthalen-1-yloxy)pyridin-2-yl)-2-methoxyacetamide, reference compound]	–	0.13	–	–	–	–	–
